Test results taken from PMC10514301 (Signal Transduction and Targeted Therapy, 2023).
Values joined by “and” are separate entries in the source; they are usually repeats but may differ in a detail not shown here. Identical values can stand only once. Like-named read-outs stand apart in the source and are kept apart here.

Key:
HCoV-OC43 [1] = assay: Median effect plots of individual drugs against HCoV-OC43 in RD cells; format: cell-based
HCoV-229E [2] = assay: Antiviral activity against HCoV-229E in Huh-7 cells (qRT-PCR); format: cell-based; conditions: Human coronavirus 229E, Huh-7, 48 h, read-out: EC50 mean ± sd, Huh-7, 229E
HCoV-OC43 [3] = assay: Antiviral activity against HCoV-OC43 in RD cells (qRT-PCR); format: cell-based; conditions: Betacoronavirus 1, OC43, RD, 48 h, read-out: EC50 mean ± sd, RD, OC43
HCoV-OC43 [4] = assay: Antiviral activity against HCoV-OC43 in Huh-7 cells (qRT-PCR); format: cell-based; conditions: Betacoronavirus 1, OC43, Huh-7, 48 h, read-out: EC50 mean ± sd, Huh-7, OC43
HCoV-229E [5] = assay: Antiviral activity against HCoV-229E in MRC5 cells (qRT-PCR); format: cell-based; conditions: Human coronavirus 229E, MRC5, 48 h, read-out: EC50 mean ± sd, MRC5, 229E
[6] = Plasma pharmacokinetics after oral administration in C57BL/6J mice; conditions: for decrease of plasma Cmax in the VV116-nirmatrelvir combination compared with the individual study / decrease of plasma exposure in the VV116-nirmatrelvir combination compared with the individual study: oral VV116 + nirmatrelvir + ritonavir 50 + 100 + 50 mg/kg
Method: The PK studies were conducted at Suzhou HQ Bioscience Co., Ltd. Eighteen C57BL/6J mice (N = 6 for each group, male) were randomly divided into three groups, and fasted for 12 h before dosing. […] The vehicle for oral administration of the test compounds was 5% DMSO + 5% Solutol HS-15 + 5% PEG400 + 85% Saline. Blood sample (70 μL) was collected from the orbit of the first three mice in each group at 0.25, 1.0, 4.0, and 8.0 and the last three mice in each group at 0.5, 2.0, 6.0, and 24 h post-dosing. The sample was taken into EDTA-K2 tubes, and centrifuged at 11,000 rpm for 5 min. The plasma was separated and frozen in a refrigerator at −70 °C for testing. The operation was conducted under an ice water bath. The concentration of analyte in plasma was determined by LC–MS/MS.

HCoV-OC43 [7] = assay: In vivo efficacy against HCoV-OC43 in suckling mice; set-up: species or system suckling Balb/c mice
Cytotoxicity in RD cells = format: cell-based; conditions: human
[8] = Betacoronavirus 1, read-out: IC50 (drug concentration that inhibit 50% viral replication), HCoV-OC43, RD cells, MOI 0.1, 48 hpi, median effect plot
[9] = Betacoronavirus 1, OC43, RD, read-out: IC50 (drug concentration that inhibit 50% viral replication)
[10] = male, C57BL/6J, mouse, plasma, po, 50 mg/kg

Compound: CC(C)(C)NC(=O)N[C@H](C(=O)N1C[C@H]2[C@@H]([C@H]1C(=O)NC(CC1CCC1)C(=O)C(N)=O)C2(C)C)C(C)(C)C (some centres unmarked) [Boceprevir, boceprevir]
- IC50 (HCoV-OC43 [1]; [8]): 26900 nM
- slope steepness (m) of the dose-response curve (HCoV-OC43 [1]; OC43): 11.2

Compound: N#C[C@@]1(c2ccc3c(N)ncnn23)O[C@H](CO)[C@@H](O)[C@H]1O [GS-441524]
- EC50 (HCoV-229E [2]): 560 ± 82 nM
- EC50 (HCoV-OC43 [3]): 460 ± 79 nM
- EC50 (HCoV-OC43 [4]): 1400 ± 55 nM
- EC50 (HCoV-229E [5]): 30 ± 21 nM

Compound: Cc1cccc(C)c1OCC(=O)N[C@@H](Cc1ccccc1)[C@@H](O)C[C@H](Cc1ccccc1)NC(=O)[C@H](C(C)C)N1CCCNC1=O [Lopinavir, lopinavir]
- IC50 (HCoV-OC43 [1]; [8]): 1440 nM
- slope steepness (m) of the dose-response curve (HCoV-OC43 [1]; OC43): 1.94

Compound: O=c1nc(NO)ccn1[C@@H]1O[C@H](CO)[C@@H](O)[C@H]1O [NHC, β-d-N4-hydroxycytidine]
- slope steepness (m) of the dose-response curve (HCoV-OC43 [1]; HCoV-OC43, RD cells, MOI 0.1, 48 hpi, median effect plot): 2.80
- IC50 (HCoV-OC43 [1]; read-out: IC50 (drug concentration that inhibit 50% viral replication), HCoV-OC43, RD cells, MOI 0.1, 48 hpi, median effect plot): 5680 nM

Compound: CC(C)(C)[C@H](NC(=O)C(F)(F)F)C(=O)N1C[C@H]2[C@@H]([C@H]1C(=O)N[C@H](C#N)C[C@@H]1CCNC1=O)C2(C)C [Nirmatrelvir, nirmatrelvir]
- decrease of plasma Cmax in the VV116-nirmatrelvir combination compared with the individual study [6]: 12.5%
- decrease of plasma exposure in the VV116-nirmatrelvir combination compared with the individual study [6]: 19.8%
- viral loads (titers, immunoplaque assay) in organs (HCoV-OC43 [7]; VV116 50 mpk, nirmatrelvir 10 and 20 mpk with ritonavir, the two combinations): less than the limit of detection (LOD)
- inflammation (cytokine gene expression) in the brain (HCoV-OC43 [7]; VV116 50 mpk, nirmatrelvir 10 mpk, 25 mpk): dramatically reduced inflammation
- lung histopathology (hematoxylin and eosin) (HCoV-OC43 [7]; VV116 50 mpk, nirmatrelvir 10 mpk, 25 mpk, Combo 1, Combo 2): significantly improved
- inflammation suppression (cytokine gene expression), especially IL-6 in the lungs (HCoV-OC43 [7]; individual VV116 and nirmatrelvir treatments versus Combo 1 and Combo 2): limited inflammation suppression
- viral copies in the brain (HCoV-OC43 [7]; oral once a day, VV116 25 and 50 mpk, nirmatrelvir 25 mpk with ritonavir 50 mpk): almost completely cleared
- IC50 (HCoV-OC43 [1]; [9]): 121 nM
- slope steepness (m) of the dose-response curve (HCoV-OC43 [1]; OC43): 4.49

Compound: Cc1cnc(C(=O)N[C@H]2CCCCC/C=C\[C@@H]3C[C@@]3(C(=O)NS(=O)(=O)C3CC3)NC(=O)[C@@H]3C[C@@H](Oc4nc5ccccc5c5ccccc45)CN3C2=O)cn1 [Paritaprevir, paritaprevir]
- IC50 (HCoV-OC43 [1]; [8]): 2500 nM
- slope steepness (m) of the dose-response curve (HCoV-OC43 [1]; OC43): 1.55

Compound: CCC(CC)COC(=O)[C@H](C)N[P@](=O)(OC[C@H]1O[C@@](C#N)(c2ccc3c(N)ncnn23)[C@H](O)[C@@H]1O)Oc1ccccc1 [RDV, remdesivir]
- EC50 (HCoV-229E [2]): 41 nM
- EC50 (HCoV-OC43 [3]): 21 ± 35 nM
- CC50 (Cytotoxicity in RD cells): 1570 nM
- IC50 (HCoV-OC43 [1]; [9]): 20.2 nM
- slope steepness (m) of the dose-response curve (HCoV-OC43 [1]; OC43): 2.40

Compound: NC(=O)c1ncn([C@@H]2O[C@H](CO)[C@@H](O)[C@H]2O)n1 [Ribavirin, ribavirin]
- IC50 (HCoV-OC43 [1]; [8]): 49500 nM
- slope steepness (m) of the dose-response curve (HCoV-OC43 [1]; OC43): 2.19

Compound: COc1ccc2c(O[C@@H]3C[C@H]4C(=O)N[C@]5(C(=O)NS(=O)(=O)C6CC6)C[C@H]5/C=C\CCCCN(C)C(=O)[C@@H]4C3)cc(-c3nc(C(C)C)cs3)nc2c1C [Simeprevir, simeprevir]
- IC50 (HCoV-OC43 [1]; [8]): 2220 nM
- slope steepness (m) of the dose-response curve (HCoV-OC43 [1]; OC43): 2.18

Compound: [2H]c1cc([C@]2(C#N)O[C@H](CO)[C@@H](O)[C@H]2O)n2ncnc(N)c12 [X1]
- AUC(0-t) [6, 10]: 19500 ng·h/mL
- Cmax [6, 10]: 10700 ng/mL and 36.6 µM
- decrease of plasma Cmax in the VV116-nirmatrelvir combination compared with the individual study [6]: 20.3%
- decrease of plasma exposure in the VV116-nirmatrelvir combination compared with the individual study [6]: 13.5%
- EC50 (HCoV-229E [2]): 570 ± 70 nM
- EC50 (HCoV-OC43 [3]): 800 ± 420 nM
- EC50 (HCoV-OC43 [4]): 1100 ± 61 nM
- EC50 (HCoV-229E [5]): 60 ± 160 nM
